Data: PubChem BioAssay AID2060488 (Molecular Pharmacology Branch, DTP, NCI, 2025)
Blank lines part the entries; values can stand above or below the molecule they belong to.

System: 966289-007-R4-J1-PDC complex spheroid viability
Assay: Anticancer human tumor 966289-007-R4-J1-PDC patient-derived pancreatic adenocarcinoma cell line growth inhibition [GQUAD]
Details: for IC50: curve of first compound; for viability, T/C: stronger effect = lower value
Summary of the method: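 Viability of tumor cells grown as complex spheroids with endothelial and stromal cells, exposed to drug combinations. Top concentration at or near clinical Cmax (else 10 microM), diluted in half-log increments.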

[1] = second compound 0.0316 µM, first compound 0.0316 µM
[2] = second compound 0.0316 µM, first compound 0.1 µM
[3] = second compound 0.0316 µM, first compound 0.316 µM
[4] = second compound 0.0316 µM, first compound 1 µM
[5] = second compound 0.0316 µM, first compound 3.16 µM
[6] = second compound 0.0316 µM, first compound 10 µM
[7] = second compound 0.1 µM, first compound 0.0316 µM
[8] = second compound 0.1 µM, first compound 0.1 µM
[9] = second compound 0.1 µM, first compound 0.316 µM
[10] = second compound 0.1 µM, first compound 1 µM
[11] = second compound 0.1 µM, first compound 3.16 µM
[12] = second compound 0.1 µM, first compound 10 µM
[13] = second compound 0.316 µM, first compound 0.0316 µM
[14] = second compound 0.316 µM, first compound 0.1 µM
[15] = second compound 0.316 µM, first compound 0.316 µM
[16] = second compound 0.316 µM, first compound 1 µM
[17] = second compound 0.316 µM, first compound 3.16 µM
[18] = second compound 0.316 µM, first compound 10 µM
[19] = second compound 1 µM, first compound 0.0316 µM
[20] = second compound 1 µM, first compound 0.1 µM
[21] = second compound 1 µM, first compound 0.316 µM
[22] = second compound 1 µM, first compound 1 µM
[23] = second compound 1 µM, first compound 3.16 µM
[24] = second compound 1 µM, first compound 10 µM
[25] = second compound 3.16 µM, first compound 0.0316 µM
[26] = second compound 3.16 µM, first compound 0.1 µM
[27] = second compound 3.16 µM, first compound 0.316 µM
[28] = second compound 3.16 µM, first compound 1 µM
[29] = second compound 3.16 µM, first compound 3.16 µM
[30] = second compound 3.16 µM, first compound 10 µM
[31] = second compound 10 µM, first compound 0.0316 µM
[32] = second compound 10 µM, first compound 0.1 µM
[33] = second compound 10 µM, first compound 0.316 µM
[34] = second compound 10 µM, first compound 1 µM
[35] = second compound 10 µM, first compound 3.16 µM
[36] = second compound 10 µM, first compound 10 µM
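Also: spheroids exposed to the agents for seven days before readout.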
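For viability, T/C in this document: percent viability relative to DMSO vehicle control wells taken as 100%.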

IC50 (second compound 0.0316 µM): > 10000 nM | IC50 (second compound 0.1 µM): < 31.6 nM | IC50 (second compound 0.316 µM): < 31.6 nM | IC50 (second compound 1 µM): < 31.6 nM | IC50 (second compound 3.16 µM): < 31.6 nM | IC50 (second compound 10 µM): < 31.6 nM
Structure (SMILES): COc1ncnc(C2CC2)c1-c1ncc2cnn(Cc3ccc(-c4nc(C(F)(F)F)cn4C(C)C)cc3)c2n1 + Cc1cnc(CNC(=O)c2c(=O)c3ccc(N4CCCN(C)CC4)nc3n3c2sc2ccccc23)cn1
viability, T/C [1]: 105% | viability, T/C [2]: 94.2% | viability, T/C [3]: 103% | viability, T/C [4]: 92.9% | viability, T/C [5]: 101% | viability, T/C [6]: 97.3% | viability, T/C [7]: 24.4% | viability, T/C [8]: 24.1% | viability, T/C [9]: 25.3% | viability, T/C [10]: 23.8% | viability, T/C [11]: 26.4% | viability, T/C [12]: 29.3% | viability, T/C [13]: 9.38% | viability, T/C [14]: 10.1% | viability, T/C [15]: 9.14% | viability, T/C [16]: 10.4% | viability, T/C [17]: 10.8% | viability, T/C [18]: 10.4% | viability, T/C [19]: 6.44% | viability, T/C [20]: 5.74% | viability, T/C [21]: 6.97% | viability, T/C [22]: 5.21% | viability, T/C [23]: 5.65% | viability, T/C [24]: 7.13% | viability, T/C [25]: 4.34% | viability, T/C [26]: 4.38% | viability, T/C [27]: 4.76% | viability, T/C [28]: 4.44% | viability, T/C [29]: 5.14% | viability, T/C [30]: 5.37% | viability, T/C [31]: 0.08% | viability, T/C [32]: 0.13% | viability, T/C [33]: 0.17% | viability, T/C [34]: 0.16% | viability, T/C [35]: 0.4% | viability, T/C [36]: 0.41%

IC50 (second compound 0.0316 µM): 46.9 nM | IC50 (second compound 0.1 µM): < 0.999 nM | IC50 (second compound 0.316 µM): < 0.999 nM | IC50 (second compound 1 µM): < 0.999 nM | IC50 (second compound 3.16 µM): < 0.999 nM | IC50 (second compound 10 µM): < 0.999 nM
Structure (SMILES): Cc1[nH]c2ccccc2c1CCNCc1ccc(/C=C/C(=O)NO)cc1 + Cc1cnc(CNC(=O)c2c(=O)c3ccc(N4CCCN(C)CC4)nc3n3c2sc2ccccc23)cn1
viability, T/C (second compound 0.0316 µM, first compound 0.000999 µM): 120% | viability, T/C (second compound 0.0316 µM, first compound 0.00316 µM): 109% | viability, T/C (second compound 0.0316 µM, first compound 0.00999 µM): 110% | viability, T/C [1]: 72% | viability, T/C (second compound 0.0316 µM, first compound 0.0999 µM): 7.63% | viability, T/C [3]: 2.65% | viability, T/C (second compound 0.1 µM, first compound 0.000999 µM): 36.1% | viability, T/C (second compound 0.1 µM, first compound 0.00316 µM): 41.1% | viability, T/C (second compound 0.1 µM, first compound 0.00999 µM): 39.4% | viability, T/C [7]: 20.3% | viability, T/C (second compound 0.1 µM, first compound 0.0999 µM): 5.43% | viability, T/C [9]: 2.01% | viability, T/C (second compound 0.316 µM, first compound 0.000999 µM): 10.3% | viability, T/C (second compound 0.316 µM, first compound 0.00316 µM): 10.7% | viability, T/C (second compound 0.316 µM, first compound 0.00999 µM): 9.3% | viability, T/C [13]: 5.04% | viability, T/C (second compound 0.316 µM, first compound 0.0999 µM): 2.95% | viability, T/C [15]: 1.25% | viability, T/C (second compound 1 µM, first compound 0.000999 µM): 7.03% | viability, T/C (second compound 1 µM, first compound 0.00316 µM): 5.38% | viability, T/C (second compound 1 µM, first compound 0.00999 µM): 5.15% | viability, T/C [19]: 3.16% | viability, T/C (second compound 1 µM, first compound 0.0999 µM): 1.45% | viability, T/C [21]: 0.33% | viability, T/C (second compound 3.16 µM, first compound 0.000999 µM): 3.98% | viability, T/C (second compound 3.16 µM, first compound 0.00316 µM): 4.39% | viability, T/C (second compound 3.16 µM, first compound 0.00999 µM): 3.78% | viability, T/C [25]: 0.2% | viability, T/C (second compound 3.16 µM, first compound 0.0999 µM): 0.08% | viability, T/C [27]: 0.8% | viability, T/C (second compound 10 µM, first compound 0.000999 µM): 0.11% | viability, T/C (second compound 10 µM, first compound 0.00316 µM): 0.57% | viability, T/C (second compound 10 µM, first compound 0.00999 µM): 0.17% | viability, T/C [31]: 0.39% | viability, T/C (second compound 10 µM, first compound 0.0999 µM): 0.16% | viability, T/C [33]: 0.17%

IC50 (second compound 0.0316 µM): 209 nM | IC50 (second compound 0.1 µM): < 31.6 nM | IC50 (second compound 0.316 µM): < 31.6 nM | IC50 (second compound 1 µM): < 31.6 nM | IC50 (second compound 3.16 µM): < 31.6 nM | IC50 (second compound 10 µM): < 31.6 nM
Structure (SMILES): O=C(NO)c1cnc(N2CCN(S(=O)(=O)c3ccc4ccccc4c3)CC2)nc1 + Cc1cnc(CNC(=O)c2c(=O)c3ccc(N4CCCN(C)CC4)nc3n3c2sc2ccccc23)cn1
viability, T/C [1]: 96.4% | viability, T/C [2]: 87.3% | viability, T/C [3]: 28.8% | viability, T/C [4]: 8.77% | viability, T/C [5]: 2.84% | viability, T/C [6]: 0.33% | viability, T/C [7]: 31.3% | viability, T/C [8]: 31.9% | viability, T/C [9]: 10.8% | viability, T/C [10]: 4.55% | viability, T/C [11]: 2.02% | viability, T/C [12]: 0.31% | viability, T/C [13]: 7.24% | viability, T/C [14]: 5.47% | viability, T/C [15]: 3.67% | viability, T/C [16]: 2.76% | viability, T/C [17]: 1.03% | viability, T/C [18]: 0.05% | viability, T/C [19]: 4.18% | viability, T/C [20]: 2.98% | viability, T/C [21]: 3.68% | viability, T/C [22]: 0.86% | viability, T/C [23]: 0.32% | viability, T/C [24]: 0.05% | viability, T/C [25]: 1.88% | viability, T/C [26]: 2.14% | viability, T/C [27]: 0.08% | viability, T/C [28]: 0.05% | viability, T/C [29]: 0.06% | viability, T/C [30]: 0.1% | viability, T/C [31]: 0.03% | viability, T/C [32]: 0.09% | viability, T/C [33]: 0.1% | viability, T/C [34]: 0.09% | viability, T/C [35]: 0.53% | viability, T/C [36]: 0.23%
